Consider 1 molecule from patent publication US20110184057A1, “PARENTERAL TREATMENT WITH STATINS” (priority 2008, published 2011).

The series is described as follows: Plasma lovastatin levels in rats after a single oral or dermal dose, by HMG-CoA reductase inhibition assay. Format: in vivo, rat. The conditions noted are these: intact rats, single dose, 1, 3, 6 and 24 hours; dermal in 100% DMSO vs oral gavage in 0.5% methylcellulose. Here is the method:
For oral administration, a suspension of lovastatin was prepared in 0.5% methylcellulose and administered by gavage.

Regarding `CC[C@H](C)C(=O)O[C@H]1C[C@@H](C)C=C2C=C[C@H](C)[C@H](CC[C@@H]3C[C@@H](O)CC(=O)O3)[C@H]21` [lovastatin], the “plasma concentrations of lovastatin, dermal versus oral” value was “greater, less variable and more prolonged than when the drug was given orally”.
